How the values were obtained:
mouse [1] = settings: Combined chronic toxicity/carcinogenicity, other, Oral, Feed, dose end: 80 week, group: systemic
mouse [2] = settings: Subchronic oral toxicity in rodents, other, Feed, dose end: 13 week, group: systemic
rat [3] = settings: Subchronic oral toxicity in rodents, wistar, Feed, dose end: 13 week, group: systemic
rabbit [4] = settings: Prenatal developmental toxicity study, new zealand white, Oral, Gavage/Intubation, dose end: 18 GD
rat [5] = settings: Prenatal developmental toxicity study, sprague dawley, Oral, Gavage/Intubation, dose end: 15 GD
mouse [6] = settings: Carcinogenicity, other, Oral, Feed, dose end: 18 month, group: systemic
rat [7] = settings: Subchronic oral toxicity in rodents, sprague dawley, Gavage/Intubation, dose end: 91 day, group: systemic
rat [8] = settings: Subchronic oral toxicity in rodents, sprague dawley, Feed, dose end: 13 week
rat [9] = settings: Multigenerational reproductive toxicity study, sprague dawley, Oral, Feed, dose end: 2 generation
rat [10] = settings: Prenatal developmental toxicity study, Sprague-Dawley, Oral, Gavage/Intubation, dose end: 15 GD
rabbit [11] = settings: Prenatal developmental toxicity study, new zealand white, Oral, Gavage/Intubation, dose end: 19 GD
dog [12] = settings: Chronic toxicity, beagle, Oral, Capsule, dose end: 12 month
dog [13] = settings: Subchronic oral toxicity in nonrodent, beagle, Feed, dose end: 3 month
mouse [14] = settings: Carcinogenicity, cd1, Oral, Feed, dose end: 78 week, group: systemic
[15] = systemic / clinical chemistry / immunoglobulins / immunoglobulins + systemic / pathology microscopic / thymus / cyst
[16] = systemic / organ weight / adrenal gland / absolute
[17] = systemic / organ weight / adrenal gland / absolute + systemic / clinical chemistry / albumin / albumin + systemic / clinical chemistry / …
[18] = systemic / clinical chemistry / aspartate aminotransferase (ast/sgot) / aspartate aminotransferase (ast/sgot) + systemic / in life …
[19] = group: developmental, systemic / in life observation / body weight / fetal weight
[20] = group: developmental, systemic / in life observation / body weight / fetal weight + developmental / developmental malformation / bone / unossified
[21] = group: maternal, systemic / in life observation / body weight / body weight gain + reproductive / reproductive performance / aborted / aborted + systemic / …
[22] = group: developmental, developmental / developmental malformation / bone / unossified + systemic / in life observation / body weight / fetal weight
[23] = group: maternal, systemic / in life observation / body weight / body weight gain + systemic / in life observation / clinical signs / poor general condition
[24] = group: maternal, systemic / in life observation / body weight / body weight gain + systemic / in life observation / clinical signs / poor general condition…
[25] = systemic / clinical chemistry / immunoglobulins / immunoglobulins
[26] = systemic / in life observation / mortality / mortality + systemic / pathology microscopic / kidney / hydronephrosis + systemic / clinical …
[27] = group: cholinesterase, cholinesterase / cholinesterase / cholinesterase / brain cholinesterase (che) + cholinesterase / cholinesterase / cholinesterase / plasma …
[28] = group: cholinesterase, cholinesterase / cholinesterase / cholinesterase / plasma cholinesterase (che)
[29] = group: systemic, systemic / in life observation / body weight / body weight + systemic / in life observation / body weight / body weight gain + systemic / in…
[30] = group: systemic, systemic / in life observation / body weight / body weight + systemic / in life observation / body weight / body weight gain + systemic / …
[31] = group: offspring, systemic / in life observation / body weight / offspring (pup) weight
[32] = group: parental, systemic / in life observation / body weight / body weight
[33] = group: parental, systemic / in life observation / body weight / body weight + systemic / pathology microscopic / heart / cardiomyopathy
[34] = group: developmental, developmental / developmental malformation / bone / unossified + developmental / developmental malformation / trunk / omphalocele + systemic…
[35] = group: maternal, reproductive / reproductive performance / resorptions / resorptions + systemic / in life observation / body weight / body weight + systemic…
[36] = group: cholinesterase, cholinesterase / cholinesterase / cholinesterase / erythrocyte cholinesterase (che) + cholinesterase / cholinesterase / cholinesterase / …
[37] = group: maternal, systemic / in life observation / body weight / body weight + systemic / in life observation / clinical signs / fur (altered appearance) + …
[38] = group: systemic, systemic / pathology microscopic / thymus / atrophy
[39] = group: systemic, systemic / in life observation / clinical signs / salivation + systemic / clinical chemistry / urea nitrogen / urea nitrogen + systemic / in…
[40] = systemic / in life observation / body weight / body weight + systemic / in life observation / food consumption / food consumption

[OH-].c1cc[c]([Sn+]([c]2ccccc2)[c]2ccccc2)cc1 [Triphenyltin hydroxide]
LEL (mouse [1]; [15]): 0.85 mg/kg/day | NEL (mouse [1]; [15]): < 0.85 mg/kg/day | NOAEL (mouse [1]; systemic / clinical chemistry / immunoglobulins / immunoglobulins + systemic / pathology microscopic / thymus / cyst + systemic / in life …): 3.5 mg/kg/day | LOAEL (mouse [1]; systemic / in life observation / body weight / body weight gain + systemic / organ weight / liver / absolute + systemic / organ weight / …): 15.2 mg/kg/day | LEL (mouse [2]; [16]): 4.12 mg/kg/day | LOAEL (mouse [2]; [16]): 4.12 mg/kg/day | NEL (mouse [2]; [17]): 0.88 mg/kg/day | NOAEL (mouse [2]; [17]): 0.88 mg/kg/day | LEL (rat [3]; systemic / clinical chemistry / aspartate aminotransferase (ast/sgot) / aspartate aminotransferase (ast/sgot) + systemic / clinical …): 1.56 mg/kg/day | LOAEL (rat [3]; [18]): 7.41 mg/kg/day | NEL (rat [3]; [18]): 0.3 mg/kg/day | NOAEL (rat [3]; [18]): 1.56 mg/kg/day | LOAEL (rabbit [4]; [19]): 0.9 mg/kg/day | LEL (rabbit [4]; [20]): 0.9 mg/kg/day | NEL (rabbit [4]; [20]): 0.3 mg/kg/day | NOAEL (rabbit [4]; [20]): 0.3 mg/kg/day | LOAEL (rabbit [4]; group: maternal, systemic / in life observation / body weight / body weight gain): 0.3 mg/kg/day | NEL (rabbit [4]; [21]): 0.1 mg/kg/day | NOAEL (rabbit [4]; [21]): 0.1 mg/kg/day | LEL (rabbit [4]; group: maternal, systemic / in life observation / body weight / body weight gain + systemic / in life observation / body weight / body weight + systemic / in…): 0.3 mg/kg/day | LEL (rat [5]; [22]): 8 mg/kg/day | LOAEL (rat [5]; [22]): 8 mg/kg/day | NEL (rat [5]; [22]): 2.8 mg/kg/day | NOAEL (rat [5]; [22]): 2.8 mg/kg/day | LEL (rat [5]; [23]): 2.8 mg/kg/day | LOAEL (rat [5]; [23]): 2.8 mg/kg/day | NEL (rat [5]; [24]): 1 mg/kg/day | NOAEL (rat [5]; [24]): 1 mg/kg/day | LOAEL (mouse [6]; [25]): 0.85 mg/kg/day | NOAEL (mouse [6]; [25]): < 0.85 mg/kg/day | LEL (mouse [6]; [15]): 0.85 mg/kg/day | NEL (mouse [6]; [15]): < 0.85 mg/kg/day

[PH]=[Zn].[PH]=[Zn].[Zn] [Zinc phosphide]
NEL (rat [7]; systemic / in life observation / clinical signs / body cold to touch + systemic / in life observation / clinical signs / salivation + …): 0.1 mg/kg/day | LOAEL (rat [7]; systemic / in life observation / mortality / mortality + systemic / pathology microscopic / kidney / hydronephrosis): 1 mg/kg/day | LEL (rat [7]; [26]): 1 mg/kg/day | NOAEL (rat [7]; [26]): 0.1 mg/kg/day

CCCN(CCC)C(=O)SCC [EPTC]
LOAEL (rat [8]; [27]): > 120 mg/kg/day | NOAEL (rat [8]; [27]): ≥ 120 mg/kg/day | LEL (rat [8]; [28]): 72 mg/kg/day | NEL (rat [8]; [28]): 15 mg/kg/day | LOAEL (rat [8]; [29]): 15 mg/kg/day | NOAEL (rat [8]; [29]): 3 mg/kg/day | LEL (rat [8]; [30]): 3 mg/kg/day | NEL (rat [8]; [30]): < 3 mg/kg/day | LEL (rat [9]; [31]): 40 mg/kg/day | LOAEL (rat [9]; [31]): 40 mg/kg/day | NEL (rat [9]; [31]): 10 mg/kg/day | NOAEL (rat [9]; [31]): 10 mg/kg/day | NEL (rat [9]; [32]): 2.5 mg/kg/day | NOAEL (rat [9]; [32]): 2.5 mg/kg/day | LEL (rat [9]; [33]): 10 mg/kg/day | LOAEL (rat [9]; [33]): 10 mg/kg/day | LEL (rat [10]; [34]): 300 mg/kg/day | LOAEL (rat [10]; [34]): 300 mg/kg/day | NEL (rat [10]; [34]): 100 mg/kg/day | NOAEL (rat [10]; [34]): 100 mg/kg/day | LEL (rat [10]; group: maternal, reproductive / reproductive performance / postimplantation loss / postimplantation loss): 100 mg/kg/day | LOAEL (rat [10]; [35]): 300 mg/kg/day | NEL (rat [10]; [35]): 30 mg/kg/day | NOAEL (rat [10]; [35]): 100 mg/kg/day | LEL (rabbit [11]; [36]): 5 mg/kg/day | LOAEL (rabbit [11]; [36]): 5 mg/kg/day | NEL (rabbit [11]; [36]): < 5 mg/kg/day | NOAEL (rabbit [11]; [36]): < 5 mg/kg/day | LEL (rabbit [11]; [19]): 300 mg/kg/day | LOAEL (rabbit [11]; [19]): 300 mg/kg/day | NEL (rabbit [11]; [19]): 40 mg/kg/day | NOAEL (rabbit [11]; [19]): 40 mg/kg/day | LEL (rabbit [11]; [37]): 300 mg/kg/day | LOAEL (rabbit [11]; [37]): 300 mg/kg/day | NEL (rabbit [11]; [37]): 40 mg/kg/day | NOAEL (rabbit [11]; [37]): 40 mg/kg/day | LEL (dog [12]; [28]): 8 mg/kg/day | LOAEL (dog [12]; [28]): 8 mg/kg/day | NEL (dog [12]; [28]): 1 mg/kg/day | NOAEL (dog [12]; [28]): 1 mg/kg/day | NOAEL (dog [12]; group: systemic, systemic / pathology microscopic / lung / fibrosis + systemic / pathology microscopic / lung / inflammation + systemic / clinical chemistry…): 1 mg/kg/day | LOAEL (dog [12]; group: systemic, systemic / pathology microscopic / lung / fibrosis + systemic / pathology microscopic / lung / inflammation + systemic / in life observation…): 8 mg/kg/day | LEL (dog [12]; [38]): 1 mg/kg/day | NEL (dog [12]; [38]): < 1 mg/kg/day | LEL (dog [13]; [28]): 45 mg/kg/day | LOAEL (dog [13]; [28]): 45 mg/kg/day | NEL (dog [13]; [28]): 15 mg/kg/day | NOAEL (dog [13]; [28]): 15 mg/kg/day | LOAEL (dog [13]; group: systemic, systemic / in life observation / clinical signs / salivation): 45 mg/kg/day | LEL (dog [13]; [39]): 45 mg/kg/day | NEL (dog [13]; [39]): 15 mg/kg/day | NOAEL (dog [13]; [39]): 15 mg/kg/day | LEL (mouse [14]; systemic / in life observation / body weight / body weight): 90 mg/kg/day | LOAEL (mouse [14]; [40]): 270 mg/kg/day | NEL (mouse [14]; [40]): 30 mg/kg/day | NOAEL (mouse [14]; [40]): 90 mg/kg/day

Source: EPA's ToxRefDB 2
